pIC50, pKi: −log10 of the molar value. Where two headings read alike, the source gives them in different places.
Key:
H3K9AC (HT1080 cells) = assay: H3K9AC Sandwich ELISA Assay in HT1080 cells (KAT2A primary cell-based screening assay); design: species or system Human
Protocol: Human fibrosarcoma cell line HT1080 was obtained from American Type Culture Collection (ATCC), Manassas, VA USA, Cat. HT-1080 (ATCC® CCL-121™). Cells were cultured in MEM (Thermo Fisher Scientific/Gibco Life Technologies Cat. #11-095-080) plus 10% (v/v) FBS (Thermo Fisher Scientific/Gibco Life Technologies Cat. #26140-079) and 1% Penicillin-Streptomycin (Thermo Fisher Scientific/Gibco Life Technologies Cat. #15070063) at 37° C. in 5% CO2.
HT1080 cells were trypsinized, cell viability count performed, and cells suspended in complete media at 100,000 cells/ml. Cells were seeded (100 μl/well) into Greiner Bio-One CELLSTAR 96-well polystyrene flat bottom cell culture microplate (Thermo Fisher Scientific Cat. #07-000-162) at a density of 10,000 cells/well. Cells were incubated for 16 hours at 37° C. at 5% CO2. Compound dilution plates were prepared in 96-well, clear U-bottom, polypropylene plates (Corning 3365) in 100% DMSO at 10 mM stock concentration in duplicate, using 10-point serial dilution (1:3). Compounds were diluted to 1:200 in growth medium and 25 μl from intermediate compound plates were added to each well of the cell plates using a Beckman FX liquid handling system such that the highest compound concentration tested was 10 μM final, with a 0.1% final DMSO concentration in the total volume of 125 μl. Plates were incubated for 24 hours at 37° C. and 5% CO2. Plates were centrifuged at 2500 rpm for 5 minutes and medium was removed. 100 μL 0.4N HCL (Thermo Fisher Scientific Cat #SA56-1) was added to each well and plates were shaken for 60 minutes at 4C to lyse cells. 38ul 0.4N Sodium phosphase dibasic pH12.5 (Thermo Fisher Scientific Cat #S375-212) containing 2 mM Sodium Butyrate (Millipore TR1008G) and 3 mM Phenylmethanesulfonyl-fluoride (Sigma 93482) was added to each well to neutralize lysates.
Cell lysate plates were mixed for 5 minutes at room temperature on shaker and immediately frozen at −80C overnight. Cell lysates were thawed and 50 μL/well was transferred to ELISA plates (Total Histone H3 mouse (Cell Signaling Technology Cat #14269) mAb-coated Corning 1×8 strip-well, white, 96-well plates (Corning 2485)). After 2 hours room temperature incubation, plates were washed six times with PBS/0.05% Tween Wash Buffer using a BioTek plate washer. 50 μL of Histone H3K9AC rabbit detection mAb (Cell Signaling Technology Cat #9649S) diluted 1:1000 in blocking buffer (Thermo Fisher Scientific Cat #37542) was added to each well and incubated for 2 hours at room temperature. After washing, 50 μL anti-rabbit IgG, HRP-Linked antibody (Cell Signaling Technology Cat #7074) diluted 1:1000 in blocking buffer was added to each well and incubated for 60 minutes at room temperature. Following incubation, plates were washed as described above. 50 μL of luminescent GLO substrate reagent (R&D System Cat #DY993) was added to each well and incubated for 10 minutes at room temperature. Plates were read on the PHERAstar plate reader using the 96-well with Luminescent reading mode. IC50 values were calculated using a four-parameter fit with GraphPad Prism version 9.5.1 or in-house modified IDBS ActivityBase data analyzing package.

KAT2A = KAT2A (Homo sapiens (Human), UniProt Q92830); assay: KAT2A acetyltransferase biochemical assay (RapidFire mass spectrometry, AcCoA to CoA)
[1] = read-out: KAT2A Ki at 1 μM AcCoA, 5 μM H3 1-21 peptide, 0.5 nM KAT2A, 90-minute reaction
[2] = Homo sapiens, HT-1080, H3K9AC sandwich ELISA
[3] = KAT2A Ki at 1 μM AcCoA, 5 μM H3 1-21 peptide, 0.5 nM KAT2A, 90-minute reaction

KAT2A, sequence (Q92830 whole entry): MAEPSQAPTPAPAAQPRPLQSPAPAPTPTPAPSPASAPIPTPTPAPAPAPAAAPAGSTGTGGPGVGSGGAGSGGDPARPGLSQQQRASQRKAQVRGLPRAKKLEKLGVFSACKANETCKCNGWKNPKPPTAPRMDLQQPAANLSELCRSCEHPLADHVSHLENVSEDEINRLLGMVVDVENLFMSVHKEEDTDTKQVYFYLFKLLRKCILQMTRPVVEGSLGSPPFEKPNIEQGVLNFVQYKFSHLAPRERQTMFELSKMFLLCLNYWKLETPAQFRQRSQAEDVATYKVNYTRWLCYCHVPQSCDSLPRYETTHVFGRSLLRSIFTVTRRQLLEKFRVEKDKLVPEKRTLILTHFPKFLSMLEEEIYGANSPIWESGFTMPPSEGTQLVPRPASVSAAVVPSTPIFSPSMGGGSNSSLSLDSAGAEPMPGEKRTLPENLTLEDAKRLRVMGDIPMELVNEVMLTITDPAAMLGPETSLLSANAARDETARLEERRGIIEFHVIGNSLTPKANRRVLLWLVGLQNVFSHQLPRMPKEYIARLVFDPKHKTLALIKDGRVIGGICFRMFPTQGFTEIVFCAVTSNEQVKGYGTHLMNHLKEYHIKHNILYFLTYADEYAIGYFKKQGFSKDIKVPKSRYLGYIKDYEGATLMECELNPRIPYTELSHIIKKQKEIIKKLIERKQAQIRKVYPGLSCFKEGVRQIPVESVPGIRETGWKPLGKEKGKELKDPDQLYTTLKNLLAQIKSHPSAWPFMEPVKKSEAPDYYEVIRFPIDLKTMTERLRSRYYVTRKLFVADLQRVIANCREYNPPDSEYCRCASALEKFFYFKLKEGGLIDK

SMILES | pIC50 (H3K9AC (HT1080 cells); H3K9AC sandwich ELISA) | pKi (KAT2A; [1]) | pIC50 (H3K9AC (HT1080 cells); [2]) | pKi (KAT2A; [3])
CN1CC(C)(C)C[C@H]1C(=O)N[C@@H]1CC[C@@H](Oc2cccc(CC(=O)O)c2-c2ccccc2C2CCC2)C1 (atropisomer, axis not shown) [Example H7] | 6.47 |  |  | 
CC1(C)CNC[C@](F)(C(=O)N[C@@H]2CC[C@@H](Oc3cccc(CC(=O)O)c3-c3cccc(F)c3C3CCC3)C2)C1 (atropisomer, axis not shown) [Example H12, [(1 ψ)-2′-cyclobutyl-3′-fluoro-6-{[(1R,3R)-3-{[(3ξ)-3-fluoro-5,5-dimethylpiperidine-3-carbonyl]amino}cyclopentyl]oxy}[1,1′-biphenyl]-2-yl]acetic acid] | < 6.00 | < 7.00 |  | 
CC1(C)CNC[C@](F)(C(=O)N[C@@H]2CC[C@@H](Oc3cccc(CC(=O)O)c3-c3cccc(F)c3C3CCC3)C2)C1 (atropisomer, axis not shown) [Example H13, [(1 ψ)-2′-cyclobutyl-3′-fluoro-6-{[(1R,3R)-3-{[(3ξ)-3-fluoro-5,5-dimethylpiperidine-3-carbonyl]amino}cyclopentyl]oxy}[1,1′-biphenyl]-2-yl]acetic acid] | 8.01 |  |  | 
CN1CC(C)(C)C[C@H]1C(=O)N[C@@H]1CC[C@@H](Oc2cccc(C(=O)NS(C)(=O)=O)c2-c2cccc(F)c2C2CCC2)C1 (atropisomer, axis not shown) [Example I1, N-[(1R,3R)-3-({(1Ψ)-2′-cyclobutyl-3′-fluoro-6-[(methanesulfonyl)carbamoyl][1,1′-biphenyl]-2-yl}oxy)cyclopentyl]-1,4,4-trimethyl-L-prolinamide] |  | 7.61 | 7.38 | 
CN1CC(C)(C)C[C@H]1C(=O)N[C@@H]1CC[C@@H](Oc2cccc(CC(=O)NS(C)(=O)=O)c2-c2ccccc2C2CCC2)C1 (atropisomer, axis not shown) [Example I3, N-[(1R,3R)-3-{[(1ψ)-2′-cyclobutyl-6-{2-[(methanesulfonyl)amino]-2-oxoethyl}[1,1′-biphenyl]-2-yl]oxy}cyclopentyl]-1,4,4-trimethyl-L-prolinamide] | < 5.18 | 5.84 |  | 
CN1CC(C)(C)C[C@H]1C(=O)N[C@@H]1CC[C@@H](Oc2cccc(C(=O)NS(=O)(=O)N(C)C)c2-c2cccc(F)c2C2CCC2)C1 (atropisomer, axis not shown) [Example I7, N-[(1R,3R)-3-({(1ψ)-2′-cyclobutyl-6-[(dimethylsulfamoyl)carbamoyl]-3′-fluoro[1,1′-biphenyl]-2-yl}oxy)cyclopentyl]-1,4,4-trimethyl-L-prolinamide] |  | 7.61 | 7.38 | 
CN1CC2(CCCC2)C[C@@H]1C(=O)N[C@@H]1CC[C@@H](Oc2cccc(C(=O)NS(C)(=O)=O)c2-c2cccc(F)c2C2CCC2)C1 (atropisomer, axis not shown) [Example I11, (3ξ)-N-[(1R,3R)-3-({(1ψ)-2′-cyclobutyl-3′-fluoro-6-[(methanesulfonyl)carbamoyl][1,1′-biphenyl]-2-yl}oxy)cyclopentyl]-2-methyl-2-azaspiro[4.4]nonane-3-carboxamide] |  | 6.79 | 5.50 | 
CN(C)S(=O)(=O)NC(=O)Cc1cccc(O[C@@H]2CC[C@@H](NC(=O)[C@@]3(F)CNC4(CCC4)C3)C2)c1-c1cccc(F)c1C1CCC1 (atropisomer, axis not shown) [Example I15, (7S)-N-[(1R,3R)-3-({(1ψ)-2′-cyclobutyl-6-[2-(dimethylsulfamamido)-2-oxoethyl]-3′-fluoro[1,1′-biphenyl]-2-yl}oxy)cyclopentyl]-7-fluoro-5-azaspiro[3.4]octane-7-carboxamide] | < 6.00 | < 7.00 |  | 
CC(C)S(=O)(=O)NC(=O)Cc1cccc(O[C@@H]2CC[C@@H](NC(=O)[C@@]3(F)CNC4(CCC4)C3)C2)c1-c1cccc(F)c1C1CCC1 (atropisomer, axis not shown) [Example I18, (7S)-N-[(1R,3R)-3-({(1ψ)-2′-cyclobutyl-3′-fluoro-6-[2-oxo-2-(propane-2-sulfonamido)ethyl][1,1′-biphenyl]-2-yl}oxy)cyclopentyl]-7-fluoro-5-azaspiro[3.4]octane-7-carboxamide] | < 6.00 | < 7.00 |  | 
CC(C)S(=O)(=O)NC(=O)c1cccc(O[C@@H]2CC[C@@H](NC(=O)[C@@]3(F)CNC4(CCC4)C3)C2)c1-c1cccc(F)c1C1CCC1 (atropisomer, axis not shown) [Example I19, (7S)-N-[(1R,3R)-3-({(1ψ)-2′-cyclobutyl-3′-fluoro-6-[(propane-2-sulfonyl)carbamoyl][1,1′-biphenyl]-2-yl}oxy)cyclopentyl]-7-fluoro-5-azaspiro[3.4]octane-7-carboxamide] |  | 7.86 | 8.15 | 
CN1CC(C)(C)C[C@H]1C(=O)N[C@H]1C[C@H](Oc2cccc(CC(=O)O)c2-c2cccc(F)c2C2CCC2)C[C@H]1O (atropisomer, axis not shown) [Example K5, [(1ψ)-2′-cyclobutyl-3′-fluoro-6-({(1S,3R,4S)-3-hydroxy-4-[(1,4,4-trimethyl-L-prolyl)amino]cyclopentyl}oxy)[1,1′-biphenyl]-2-yl]acetic acid] | 6.31 | 7.12 |  | 
CN1CC(C)(C)C[C@H]1C(=O)N[C@H]1C[C@H](Oc2cccc(CC(=O)O)c2-c2cccc(F)c2C2CCC2)C[C@H]1O (atropisomer, axis not shown) [Example K6, [(1ψ)-2′-cyclobutyl-3′-fluoro-6-({(1S,3R,4S)-3-hydroxy-4-[(1,4,4-trimethyl-L-prolyl)amino]cyclopentyl}oxy)[1,1′-biphenyl]-2-yl]acetic acid] | 8.24 | 8.95 |  | 
CC1(C)C[C@@](F)(C(=O)N[C@@H]2CC[C@@H](Oc3ccc(C(C)(C)C(=O)O)cc3-c3cccc(F)c3C3CCC3)C2)CN1 (single isomer, unassigned) [Example A3] |  | 5.84 | < 5.00 | 
CC[C@](C)(C(=O)O)c1ccc(O[C@@H]2CC[C@@H](NC(=O)[C@]3(F)CNC4(CCC4)C3)C2)c(-c2cccc(F)c2C2CCC2)c1 (single isomer, unassigned) [Example A10] | < 6.00 | < 6.00 |  | 
CCC1(CC)C[C@@](F)(C(=O)N[C@@H]2CC[C@@H](Oc3ccc(C(C)(C)C(=O)O)cc3-c3cccc(F)c3C3CCC3)C2)CN1 (single isomer, unassigned) [Example A30] | < 6.00 |  |  | 
CCC1(CC)C[C@@](F)(C(=O)N[C@@H]2CC[C@@H](Oc3ccc(C(C)(C)C(=O)O)cc3-c3cccc(F)c3C3CCC3)C2)CN1 (single isomer, unassigned) [Example A31] | 8.03 |  |  | 
CN1CC2(CCCC2)C[C@H]1C(=O)N[C@@H]1CC[C@@H](Oc2ccc(C(=O)O)cc2-c2ccccc2C2CCC2)C1 (single isomer, unassigned) [Example D8] |  | 6.03 |  | 
C[C@H](C(=O)O)c1nn(C)cc1-c1ccc(O[C@@H]2CC[C@@H](NC(=O)[C@]3(F)CNC4(CCC4)C3)C2)c(-c2cccc(F)c2C2CCC2)c1 (single isomer, unassigned) [Example J3] |  | 6.07 |  | 
CCn1cc(-c2ccc(O[C@@H]3CC[C@@H](NC(=O)[C@@]4(F)CNC5(CCC5)C4)C3)c(-c3cccc(F)c3C3CCC3)c2)c(C(=O)O)n1 (single isomer, unassigned) [Example J14] |  | 6.55 |  | 
Cc1cc(NS(C)(=O)=O)n(-c2ccc(O[C@@H]3CC[C@@H](NC(=O)[C@@]4(F)CNC5(CCC5)C4)C3)c(-c3cccc(F)c3C3CCC3)c2)n1 (single isomer, unassigned) [Example L2] |  |  |  | < 7.00
CC(C)(C(=O)O)c1ccc(O[C@@H]2CC[C@@H](NC(=O)[C@]3(F)CNC4(CCC4)C3)C2)c(-c2cccc(F)c2C2CCC2)c1 [Example A2, 2-(2′-cyclobutyl-3′-fluoro-6-{[(1R,3R)-3-({[(7R)-7-fluoro-5-azaspiro[3.4]oct-7-yl]carbonyl}amino)cyclopentyl]oxy}biphenyl-3-yl)-2-methylpropanoic acid] |  |  |  | 5.56
